Here are results for 17 compounds from PubChem BioAssay (NCI).

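Dose response: 5 concentrations. Exposure: 48 h. Format: 96-well plates. Endpoint: linear interpolation; highest concentration if not reached. GI50 is the concentration that inhibits growth by half. The concentration for full growth arrest is given as TGI.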 Some results are limits rather than exact numbers.

Some test systems named below: CAKI-1 renal; UACC-257 melanoma; SF-268 CNS; NCI/ADR-RES ovarian; SK-MEL-28 melanoma; KM12 colon; MCF7 breast; HT29 colon; SNB-75 CNS; MALME-3M melanoma.
Test in all cases: NCI tumour cell line growth inhibition, 48 h

Take `O=C1C=CC=C/C1=C1\N=C(c2ccccc2OCC(=O)c2ccc(Br)cc2)SS1`: the TGI in the test on CAKI-1 renal, with UACC-257 melanoma, with SF-268 CNS, in the test on NCI/ADR-RES ovarian, in the test with SK-MEL-28 melanoma and with KM12 colon was over 100 µM each time. Also, the TGI in the test with MCF7 breast was over 100 µM; in the test with HT29 colon it was over 100 µM; with SNB-75 CNS, 44.5 µM; in the test with MALME-3M melanoma, over 100 µM.

For the compound `O=C1CCCC2(c3ccccc3)Nc3ccccc3N12` (stereo not given), the TGI with CAKI-1 renal, in the test on UACC-257 melanoma, in the test with SF-268 CNS, in the test on NCI/ADR-RES ovarian, in the test with SK-MEL-28 melanoma and in the test on KM12 colon was over 100 µM in each case. The TGI in the test with MCF7 breast, with HT29 colon, with SNB-75 CNS and in the test on MALME-3M melanoma was over 100 µM each time.

Take `CCOC(=O)C(O)(NC(=O)c1ccc(F)cc1)C(F)(F)F` (stereo not given): the TGI with CAKI-1 renal, in the test with UACC-257 melanoma, in the test with SF-268 CNS, in the test on NCI/ADR-RES ovarian, with SK-MEL-28 melanoma and in the test with KM12 colon was over 100 µM throughout. Further, the TGI with MCF7 breast, in the test on HT29 colon, with SNB-75 CNS and with MALME-3M melanoma was over 100 µM each time.

As for `Cc1ccc(N=Nc2c(C)c(C#N)c(=S)n(C3OC(CO)C(O)C(O)C3O)c2C)cc1` (stereo not given), the TGI in the test with CAKI-1 renal was over 100 µM; with UACC-257 melanoma, over 100 µM; in the test on SF-268 CNS, over 100 µM; in the test with NCI/ADR-RES ovarian it was over 100 µM; with SK-MEL-28 melanoma, 44.7 µM; with KM12 colon it was over 100 µM. For the same compound, the TGI in the test on MCF7 breast is over 100 µM; in the test with HT29 colon, over 100 µM; in the test on SNB-75 CNS, 73.2 µM; in the test with MALME-3M melanoma, 42.7 µM.

With `CN(/N=C/c1ccc(OCc2cccc(COc3ccc(C=O)cc3)n2)cc1)c1cnn(-c2ccc(Cl)cc2Cl)c(=O)c1Cl`, the TGI in the test on CAKI-1 renal, in the test on UACC-257 melanoma, with SF-268 CNS, in the test on NCI/ADR-RES ovarian, with SK-MEL-28 melanoma and with KM12 colon was over 100 µM in each case. In addition, the TGI in the test with MCF7 breast is over 100 µM; in the test on HT29 colon it was over 100 µM; in the test with SNB-75 CNS, 39.9 µM; with MALME-3M melanoma, over 100 µM.

Consider `COC(=O)CCc1cc(O)c2c(c1)C(C(=O)OC)C(c1ccc(O)c(O)c1)O2` (stereo not given), for which the TGI in the test on CAKI-1 renal was over 100 µM; with UACC-257 melanoma, over 100 µM; with SF-268 CNS it was over 100 µM; with NCI/ADR-RES ovarian it was over 100 µM; in the test on SK-MEL-28 melanoma, over 100 µM; with KM12 colon it was over 46.5 µM. Besides, the TGI in the test with MCF7 breast was over 100 µM; in the test with HT29 colon it was over 96.4 µM; in the test on SNB-75 CNS, 8.41 µM; with MALME-3M melanoma, over 100 µM.

For `Cc1cc(C)n(C2OC(CO)C(O)C(O)C2O)c(=S)c1C#N` (stereo not given), the TGI in the test on CAKI-1 renal, in the test on UACC-257 melanoma, in the test with SF-268 CNS, in the test on NCI/ADR-RES ovarian, in the test on SK-MEL-28 melanoma and with KM12 colon was over 100 µM throughout. In addition, the TGI in the test with MCF7 breast, in the test on HT29 colon, in the test on SNB-75 CNS and in the test on MALME-3M melanoma was over 100 µM in each case.

As to `CC(C)(C)C1=CC(=C(c2ccc(-c3c4nc(c(-c5ccc(C(=C6C=C(C(C)(C)C)C(=O)C(C(C)(C)C)=C6)c6cc(C(C)(C)C)c(O)c(C(C)(C)C)c6)cc5)c5ccc([nH]5)c(-c5ccc(C(=C6C=C(C(C)(C)C)C(=O)C(C(C)(C)C)=C6)c6cc(C(C)(C)C)c(O)c(C(C)(C)C)c6)cc5)c5nc(c(-c6ccc(C(=C7C=C(C(C)(C)C)C(=O)C(C(C)(C)C)=C7)c7cc(C(C)(C)C)c(O)c(C(C)(C)C)c7)cc6)c6ccc3[nH]6)C=C5)C=C4)cc2)c2cc(C(C)(C)C)c(O)c(C(C)(C)C)c2)C=C(C(C)(C)C)C1=O`, the TGI in the test with CAKI-1 renal, in the test on UACC-257 melanoma, in the test on SF-268 CNS, with NCI/ADR-RES ovarian, in the test with SK-MEL-28 melanoma and in the test with KM12 colon was over 100 µM throughout. Moreover, the TGI in the test with MCF7 breast, in the test on HT29 colon, in the test on SNB-75 CNS and in the test on MALME-3M melanoma was over 100 µM throughout.

Turning to `O=C(O)Cc1cccc2c1OC(c1ccccc1)C(Cl)(C(=O)c1ccccc1)C2=O` (stereo not given), the TGI was 31.6 µM with CAKI-1 renal; 32 µM in the test with UACC-257 melanoma; 76.1 µM with SF-268 CNS; over 100 µM with NCI/ADR-RES ovarian; 29.1 µM with SK-MEL-28 melanoma; 50.6 µM in the test with KM12 colon. For the same compound, the TGI worked out at 24.5 µM with MCF7 breast, 30 µM with HT29 colon, 40.9 µM with SNB-75 CNS and 34.9 µM in the test with MALME-3M melanoma.

In the case of `O=S1(=O)N(CCNc2nccc(-c3c(-c4cccc(O)c4)nc4sccn34)n2)CCN1Cc1ccccc1`, the GI50 with CAKI-1 renal was 4.4 µM; in the test with UACC-257 melanoma, 0.996 µM; in the test with SF-268 CNS, 15.3 µM; in the test with NCI/ADR-RES ovarian, 14.1 µM; in the test on SK-MEL-28 melanoma, 0.417 µM; in the test with KM12 colon it was 5.44 µM. Also, the GI50 in the test with MCF7 breast was 4.22 µM; in the test with HT29 colon, 2.57 µM; in the test on SNB-75 CNS, 9.38 µM; with MALME-3M melanoma, 0.108 µM. Moreover, the TGI in the test with CAKI-1 renal was 17.8 µM; with UACC-257 melanoma it was 43.1 µM; in the test on SF-268 CNS it was over 50 µM; in the test with NCI/ADR-RES ovarian, over 50 µM; with SK-MEL-28 melanoma, over 50 µM; in the test with KM12 colon it was 15.3 µM. The TGI is 34.6 µM in the test on MCF7 breast, 36.4 µM with HT29 colon, over 50 µM in the test with SNB-75 CNS and over 50 µM in the test on MALME-3M melanoma.

Regarding `c1csc(-c2cc(-c3cccs3)c(-c3ccsc3)s2)c1`, the TGI in the test with CAKI-1 renal, with UACC-257 melanoma, with SF-268 CNS, in the test with NCI/ADR-RES ovarian, in the test on SK-MEL-28 melanoma and in the test with KM12 colon was over 100 µM each time. Further, the TGI in the test with MCF7 breast, with HT29 colon, in the test with SNB-75 CNS and in the test on MALME-3M melanoma was over 100 µM in each case.

In the case of `O=C(O)[C@@H]1CSCN1C(=O)[C@@H]1CCC(=S)N1`, the TGI in the test with CAKI-1 renal, in the test with UACC-257 melanoma, in the test with SF-268 CNS, with NCI/ADR-RES ovarian, in the test on SK-MEL-28 melanoma and in the test with KM12 colon was over 100 µM throughout. In addition, the TGI in the test with MCF7 breast, with HT29 colon, in the test on SNB-75 CNS and in the test with MALME-3M melanoma was over 100 µM each time.

Consider `CC(=NNC(=S)Nc1ccc(C)cc1)c1cccc(C(C)=NNC(=S)Nc2ccc(C)cc2)n1`, for which the TGI was 40.3 µM in the test with CAKI-1 renal; 69.7 µM with UACC-257 melanoma; over 100 µM with SF-268 CNS; 58.8 µM in the test on NCI/ADR-RES ovarian; over 100 µM in the test with SK-MEL-28 melanoma; over 100 µM with KM12 colon. The TGI was over 100 µM in the test on MCF7 breast, over 100 µM in the test with HT29 colon, 85 µM with SNB-75 CNS and 46.9 µM in the test on MALME-3M melanoma.

`Cc1ccc(NC(=S)N/N=C(/c2ccccc2)c2ccccn2)cc1`: the TGI is 9.48 µM with CAKI-1 renal; 1.9 µM with UACC-257 melanoma; 1.32 µM with SF-268 CNS; over 80.2 µM in the test with NCI/ADR-RES ovarian; 2.32 µM with SK-MEL-28 melanoma; 13.4 µM in the test with KM12 colon. For the same compound, the TGI in the test with MCF7 breast came to 15.7 µM; with HT29 colon, 20.3 µM; in the test with SNB-75 CNS it was 5.16 µM; in the test on MALME-3M melanoma it was 9.23 µM.

Turning to `Cc1ccc2c(c1)C1(C)OC(C=CC1=O)O2` (stereo not given), the TGI in the test with CAKI-1 renal stood at 1.49 µM; with UACC-257 melanoma, 3.45 µM; with SF-268 CNS, 10.3 µM; in the test with NCI/ADR-RES ovarian, 0.0653 µM; in the test on SK-MEL-28 melanoma it was 2.03 µM; in the test with KM12 colon, 2.14 µM. Moreover, the TGI was determined as 6.09 µM with MCF7 breast, 0.684 µM in the test with HT29 colon, 4.35 µM in the test with SNB-75 CNS and 1.32 µM with MALME-3M melanoma.

As for `CC(C)(C)c1ccc(-c2nc3ccc(Cl)cc3c(=O)o2)cc1`, the TGI in the test with CAKI-1 renal was found to be 63.9 µM; with UACC-257 melanoma, 65.1 µM; in the test with SF-268 CNS, 77.3 µM; in the test on NCI/ADR-RES ovarian it was 67.1 µM; in the test on SK-MEL-28 melanoma, 57.2 µM; with KM12 colon, 19.2 µM. Moreover, the TGI in the test with MCF7 breast was found to be 61.7 µM; in the test with HT29 colon, 63.8 µM; in the test on SNB-75 CNS, 81.6 µM; in the test with MALME-3M melanoma, 50.9 µM.

With `CNc1nc2n(CCO)c(-c3ccccc3)c(-c3ccccc3)nc-2c(=O)n1`, the TGI in the test with CAKI-1 renal, with UACC-257 melanoma, in the test with SF-268 CNS, in the test on NCI/ADR-RES ovarian, with SK-MEL-28 melanoma and in the test on KM12 colon was over 50 µM each time. The TGI in the test on MCF7 breast, with HT29 colon, in the test on SNB-75 CNS and with MALME-3M melanoma was over 50 µM throughout.
